Experimental data published in patent US20100205696A1, “NOVEL HERBICIDE RESISTANCE GENE” (UNIVERSITY OF TENNESSEE RESEARCH FOUNDATION, priority 2009, published 2010).

Tests used:
[1] = tested on: PtJBMTm3; assay: Radiochemical methyltransferase assay (detoxification activity) with PtJBMTm3; type: biochemical; conditions: 1 mM substrate, 3 μM 14C-SAM, 25° C., 30 min; for Relative assay activity of PtJBMT M3: relative to the activity of PtJBMTm3 with jasmonic acid set as 1
Description: (§1) The detoxification activity of PtJBMTm3 was determined using radiochemical methyltransferase assays. The assays were performed with a 50 μL volume containing 50 mM Tris-HCl, pH 7.5, 1 mM of individual auxin mimic herbicides dissolved in water, and 3 μM ^14C—S-Adenosyl methionine (SAM) with a specific activity of 51.4 mCi/mmol (Perkin Elmer, Boston, Mass.). The assay was initiated by addition of SAM, maintained at 25° C. for 30 min, and stopped by addition of […] (150 μL). After phase separation by one min centrifugation at 14,000 g, the upper organic phase was counted using a liquid scintillation counter (Beckman Coulter, Fullerton, Calif.) as previously described (D'Auria et al., 2002). Radioactivity counts in the organic phase indicated the amount of synthesized methyl esters, which are the detoxificated products of individual auxin mimic herbicides. The relative assay activities of PtJBMT and PtJBMTm3 with auxin-based herbicides is illustrated in Table 2 (the activity of PtJBMTm3 with jasmonic acid was set as 1).

[2] = tested on: PtJBMT; assay: Radiochemical methyltransferase assay (detoxification activity) with PtJBMT; type: biochemical; conditions: 1 mM substrate, 3 μM 14C-SAM, 25° C., 30 min; relative to the activity of PtJBMTm3 with jasmonic acid set as 1
Description: as §1

Compound	Relative assay activity of PtJBMT M3 [1] [%]	Relative assay activity of PtJBMT [2] [%]	Relative assay activity of PtJBMT M3 (reference, set as 1) ([1]; reference value set as 1)
O=C(O)c1c(Cl)ccc(Cl)c1Cl [2,3,6 Trichloro-benzoic acid]	75.4	15.0	–
O=C(O)COc1cc(Cl)c(Cl)cc1Cl [2,4,5-T]	25.5	0.4	–
O=C(O)COc1ccc(Cl)cc1Cl [2,4-D, 2,4-dichlorophenoxyacetic acid]	57.5	1.7	–
O=C(O)CCCOc1ccc(Cl)cc1Cl [2,4-DB]	38.7	0.5	–
O=C(O)Cc1c[nH]c2cccc(Cl)c12 [4-Cl-IAA]	33.6	1.1	–
O=C(O)CCCc1c[nH]c2ccccc12 [IBA]	30.3	0.8	–
CC/C=C\C[C@H]1C(=O)CC[C@@H]1CC(=O)O [Jasmonic acid]	–	85.1	1
Cc1cc(Cl)ccc1OCC(=O)O [MCPA]	70.0	3.5	–
Cc1cc(Cl)ccc1OCCCC(=O)O [MCPB]	11.0	0.1	–
O=C(O)Cc1cccc2ccccc12 [NAA]	91.8	7.8	–
O=C(O)Cc1ccccc1 [PAA]	58.3	0.8	–
CC(C)(Oc1ccc(Cl)cc1)C(=O)O [PCIB]	96.9	8.0	–
O=C(O)c1nc(Cl)ccc1Cl [clopyralid]	94.1	17.1	–
COc1c(Cl)ccc(Cl)c1C(=O)O [dicamba]	73.9	2.3	–
CC(Oc1ccc(Cl)cc1Cl)C(=O)O (centres unmarked) [dichlorprop]	73.0	7.3	–
Nc1c(Cl)c(F)nc(OCC(=O)O)c1Cl [fluroxypyr]	4.2	0.6	–
Cc1cc(Cl)ccc1OC(C)C(=O)O (centres unmarked) [mecoprop]	87.5	12.8	–
Nc1c(Cl)c(Cl)nc(C(=O)O)c1Cl [picloram]	78.1	3.7	–
O=C(O)c1c(Cl)ccc2cc(Cl)cnc12 [quinclorac]	91.3	11.2	–
